Measurements taken from patent US20220009980A1, “TP5, A PEPTIDE INHIBITOR OF ABERRANT AND HYPERACTIVE CDK5/P25 AS TREATMENT FOR CANCER” (The United States of America,as represented by the …, priority 2018, published 2022).

Tests used:
[1] = system: glioblastoma cell line U251; experiment: Viability of glioblastoma cell line U251; assay type: cell-based; details: FIG. 1
Description: (§1) The viability of glioblastoma cell line U251 following the administration of TP5 (SEQ ID NO: 1) was determined. TP5 scrambled (SEQ ID NO: 2) was used as a control.

orthotopic glioblastoma = experiment: Orthotopic glioblastoma mouse model; assay type: in vivo; details: for proliferation rate: 100 μM or 300 μM of TP5; for tumor volume: 100 μM or 300 μM of TP5, FIG. 5
Description: The effect of TP5 administration in an orthotopic glioblastoma mouse model additionally was determined. 100 μM or 300 μM of TP5 was administered to the mice and tumor volume and proliferation rate were investigated.

[2] = system: subcutaneous colorectal cancer; experiment: Subcutaneous colorectal cancer mouse model; assay type: in vivo; details: FIG. 9
Description: The effect of TP5 administration alone or in combination with chemotherapy (Sn38; 7-ethyl-10-hydroxycamptothecin) in a subcutaneous colorectal cancer mouse model additionally was determined. TP5, Sn38, or TP5+Sn38 was administered to the mice and tumor volume and proliferation rate were investigated.

[3] = system: glioblastoma cell line U251; experiment: Early and late apoptosis in glioblastoma cell line U251; assay type: cell-based; details: FIG. 3
Description: The extent of early and late apoptosis in glioblastoma cell line U251 also was determined.

glioblastoma colonies = experiment: Number and viability of glioblastoma colonies; assay type: cell-based; details: different amounts of TP5; FIG. 2
Description: as §1

[4] = system: colorectal carcinoma cell line HT29; experiment: Viability of colorectal carcinoma cell line HT29; assay type: cell-based; details: FIG. 6
Description: (§2) The viability of colorectal carcinoma cell line HT29 following the administration of TP5 (SEQ ID NO: 1) was determined. TP5 scrambled (SEQ ID NO: 2) was used as a control.

[5] = system: colorectal cancer colonies; experiment: Number and viability of colorectal cancer colonies; assay type: cell-based; details: different amounts of TP5; FIG. 7
Description: as §2

[6] = system: colorectal carcinoma cell line HT29; experiment: DNA damage measured by expression of pH2Ax in HT29; assay type: cell-based; details: FIG. 8
[7] = system: glioblastoma cell line U251; experiment: DNA damage measured by expression of pH2Ax in U251; assay type: cell-based; details: FIG. 4
Description: Although not wishing to be bound by any particular theory, TP5 is believed to increase DNA damage in a dose-dependent manner and impair DNA repair by reducing G2 phase and decreasing the phosphorylation of ATM.

| Substance | viability of glioblastoma cell line [1] | proliferation rate (orthotopic glioblastoma) | tumor volume (orthotopic glioblastoma) | tumor volume [2] | early and late apoptosis [3] | number and viability of glioblastoma colonies (glioblastoma colonies) | viability of colorectal carcinoma cell line [4] | number and viability of colorectal cancer colonies [5] | DNA damage as measured by expression of pH2Ax [6] | DNA damage as measured by expression of pH2Ax [7] |
| --- | --- | --- | --- | --- | --- | --- | --- | --- | --- | --- |
| TP5 scrambled: scrambled TP5 peptide (SEQ ID NO: 2) used as a control (FWDRCLSGKMSSKGGGINAYARAARRAARR) [reference compound] | but not TP5 scrambled decreased the viability of glioblastoma cell line | but not TP5 scrambled decreases the tumor volume and proliferation rate | but not TP5 scrambled decreases the tumor volume | – | – | – | – | – | – | – |
| TP5: P5, a small peptide that selectively inhibits aberrant and hyperactive CDK5/p25, modified to facilitate passage through blood brain barrier; SEQ ID NO: 1 (KEAFWDRCLSVINLMSSKMLQINAYARAARRAARR) | decreased the viability of glioblastoma cell line in a dose-dependent manner | decreases the tumor volume and proliferation rate | decreases the tumor volume | decreased the tumor volume of the mice | increases the early and late apoptosis of glioblastoma cells | decreased the number and viability of glioblastoma colonies in a dose-dependent manner | decreased the viability of glioblastoma cell line in a dose-dependent manner | decreased the number and viability of colorectal cancer colonies in a dose-dependent manner | increases DNA damage in colorectal carcinoma cell line HT29 in a dose-dependent manner | increases DNA damage in glioblastoma cell line U251 in a dose-dependent manner |
